The values that follow are results of earlier work, collected in patent US10064865B2, “Composition comprising phosphodiesterase type 5 inhibitor for inhibiting apoptosis of nerve cells” (ARIBIO INC., priority 2012, dated 2018).

The test system of the series is B-chronic lymphocytic leukemia cells. The following applies: Marika Sarfati et al., BLOOD 2003; cited from earlier work.

SMILES strings stand for the structures.

As to `CCCc1nn(C)c2c(=O)[nH]c(-c3cc(S(=O)(=O)N4CCN(C)CC4)ccc3OCC)nc12` [sildenafil], the “apoptosis of B-chronic lymphocytic leukemia cells” value is on record as “induce caspase-dependent apoptosis”.
